Literature values in patent US20100323998A1, “TOPICAL COMPOSITION CONTAINING THE COMBINATION OF MUPIROCIN AND BECLOMETHASONE” (Glenmark Pharmaceuticals Ltd., priority 2007, published 2010).

Tested on: Gram-positive and Gram-negative bacteria
Settings: in vitro

In the case of `C/C(=C\C(=O)OCCCCCCCCC(=O)O)C[C@@H]1OCC(C[C@@H]2O[C@H]2[C@@H](C)[C@H](C)O)[C@@H](O)[C@H]1O` (stereo partly drawn) [Mupirocin, (E)-(2S,3R,4R,5S)-5-[(2S,3S,4S,5S)-2,3-Epoxy-5-hydroxy-4-methylhexyl]tetrahydro-3,4-dihydroxy-β-methyl-2H-pyran-2-crotonic acid, ester with 9-hydroxynonanoic acid], the “Growth of Gram-positive and Gram-negative bacteria” value is listed as “inhibits the growth”.
